Entries after “also recorded” stand apart in the source; their conditions may differ. Read-outs that look alike come from different tables or passages of the source.
How the values were obtained:
[1] = Pharmacokinetic study in mice; format: in vivo; conditions: WT mice, 50 mg/kg by gavage, serum, FIG. 11
Description: Pharmacokinetic Study in Mice.
Blood was collected at 0, 0.25, 0.5, 1, 2, 4, 8, 12, 24 h after treatment. The concentration of target compound in serum was analyzed by UPLC-QTOFMS.

carboxylesterase 1 = target: T1, carboxylesterase 1 (Homo sapiens, UniProt P23141); test: Hydrolysis of tert-butyl ester group by carboxylesterase 1; format: in vitro ADME
T1 sequence (P23141 18-567): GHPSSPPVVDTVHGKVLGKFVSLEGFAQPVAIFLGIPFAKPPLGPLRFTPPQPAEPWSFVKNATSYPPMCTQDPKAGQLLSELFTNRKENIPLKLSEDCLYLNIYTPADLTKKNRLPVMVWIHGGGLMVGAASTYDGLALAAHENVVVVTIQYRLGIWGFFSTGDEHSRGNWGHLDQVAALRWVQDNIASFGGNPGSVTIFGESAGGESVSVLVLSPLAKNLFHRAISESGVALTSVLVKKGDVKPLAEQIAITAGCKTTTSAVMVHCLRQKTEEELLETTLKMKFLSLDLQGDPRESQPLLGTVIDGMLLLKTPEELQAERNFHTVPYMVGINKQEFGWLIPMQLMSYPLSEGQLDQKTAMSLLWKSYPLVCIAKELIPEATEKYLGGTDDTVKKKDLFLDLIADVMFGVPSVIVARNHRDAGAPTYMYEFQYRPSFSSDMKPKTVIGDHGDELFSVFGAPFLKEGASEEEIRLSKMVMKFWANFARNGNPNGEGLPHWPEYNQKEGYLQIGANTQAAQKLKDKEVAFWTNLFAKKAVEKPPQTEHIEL

ABCG2 = target: T2, ABCG2 (Homo sapiens, UniProt Q9UNQ0); test: Protoporphyrin IX (PPIX)-based ABCG2 inhibition assay using the A549 cancer cell line; conditions: read-out: IC50, the half maximal inhibitory concentration
T2 construct: developed using the A549 cancer cell line; endogenous in cells; host or cells: A549 cancer cell line
T2 sequence (Q9UNQ0 1-655): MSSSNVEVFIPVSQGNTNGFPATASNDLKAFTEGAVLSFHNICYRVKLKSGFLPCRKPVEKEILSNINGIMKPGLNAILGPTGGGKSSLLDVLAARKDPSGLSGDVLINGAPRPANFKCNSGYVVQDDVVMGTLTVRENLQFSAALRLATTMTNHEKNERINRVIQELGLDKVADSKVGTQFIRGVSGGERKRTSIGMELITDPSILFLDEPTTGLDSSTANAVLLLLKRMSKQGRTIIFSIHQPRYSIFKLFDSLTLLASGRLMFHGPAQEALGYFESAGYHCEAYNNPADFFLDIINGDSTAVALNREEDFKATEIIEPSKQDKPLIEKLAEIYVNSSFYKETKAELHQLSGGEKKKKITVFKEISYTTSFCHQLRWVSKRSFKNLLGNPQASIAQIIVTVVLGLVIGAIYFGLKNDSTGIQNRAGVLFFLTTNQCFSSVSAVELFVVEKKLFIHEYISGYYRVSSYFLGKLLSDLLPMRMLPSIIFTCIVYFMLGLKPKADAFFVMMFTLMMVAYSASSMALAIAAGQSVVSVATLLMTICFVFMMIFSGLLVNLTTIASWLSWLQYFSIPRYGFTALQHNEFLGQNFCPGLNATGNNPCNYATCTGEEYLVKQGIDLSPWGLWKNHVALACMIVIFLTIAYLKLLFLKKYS
Source text: A Protoporphyrin IX(PPIX)-based ABCG2 inhibition assay was developed using the A549 cancer cell line.

[2] = Metabolic stability assay, incubation with human liver microsomes (HLM); format: in vitro ADME; conditions: remaining parent compound
Description: Metabolic Stability Assay.
After the incubation (0-60 min), the remaining parent compounds were analyzed by UPLC-QTOFMS.

RBCs of Fech-mut mice = test: Effect on PPIX efflux from RBCs; format: cell-based; conditions: 10 μM, FIG. 14
Source text: Effects of ABCG2 Inhibitors on PPIX Efflux from RBCs.
PPIX in RBCs and culture medium was extracted, respectively, and analyzed by UPLC-QTOFMS.

Fech-mut mice = test: Efficacy against EPP-associated phototoxicity in vivo (Fech-mut mouse model)
Description: Efficacy of ABCG2 Inhibitors Against EPP-Associated Phototoxicity In Vivo.
The Fech-mut mouse model was used as an EPP model to determine the efficacy of ABCG2 inhibitors against EPP-associated phototoxicity, the most common symptom in EPP patients (6-8). […] After 5 days' treatment, all mice were sacrificed for evaluation of skin damage.
Thirty minutes after treatment, the mice were exposed to UV light for 30 minutes. The same treatment (drug plus light exposure) was repeated once daily for 4 days. From the 5th day, drug treatment was stopped, but the light exposure was continued for 4 more days. The gross appearance of mouse skin was recorded every day. On the 9th day, all mice were sacrificed and the back skin was collected for evaluation of phototoxicity.

WT and Abcg2-null mice = test: Chemically-induced PPIX accumulation and hepatotoxicity in WT and Abcg2-null mice; conditions: DDC 0.1% or GSF 2.5% in diet, two weeks
Description: Animal Studies to Determine the Role of ABCG2 in Chemically-Induced PPIX Accumulation and Hepatotoxicity
WT and Abcg2-null mice were treated with DDC (0.1% in diet) or GSF (2.5% in diet) for two weeks. In addition, hPXR and hPXR/Abcg2-null mice were treated with RIF (100 mg/Kg diet) and INH (400 mg/L drinking water) for four weeks. After the treatment, blood and liver samples were collected for evaluation of liver injury and analysis of PPIX.
Liver injury was evaluated by analyzing serum alanine aminotransaminase (ALT), aspartate aminotransferase (AST), alkaline phosphatase (ALP) (Pointe Scientific Canton, MI), and total bilirubin (Sigma-Aldrich, St. Louis, MO). These liver injury biomarkers were analyzed according to the standard procedures provided by the manufacturers. Blood toxicity was evaluated by analyzing mean corpuscular hemoglobin (MCH) (HESKA HemaTrue; Loveland, CO) and total hemoglobin (tHb) (AVOXimeter 4000; Edison, NJ).
Liver and skin tissues were first fixed in 4% formaldehyde phosphate solution overnight and then dehydrated and embedded in paraffin. […] sections were cut and stained. For hematoxylin and eosin (H&E) staining, tissue sections were stained in hematoxylin solution for 5 min, washed with tap water for 1 min, and then differentiated in 1% acetic acid solution for 1 min and followed by staining in eosin solution for 1 min. For Sirius Red Staining, tissue sections were stained in 0.1% PicroSirius Red solution for 1 h, and then washed with 1% acetic acid solution twice.

[3] = read-out: CC50, the 50% cytotoxic concentration, MTT assay

SMILES | CC50 (MTT cytotoxicity assay; [3]) [µM] | IC50 (ABCG2) [µM] | HLM stability (% vs 0 min) 30 min [2] [%] | HLM stability (% vs 0 min) 60 min [2] [%] | further results
COc1ccc2c3c([nH]c2c1)[C@H](CC(C)C)N1C(=O)[C@H](CCC(=O)NC(C)(C)C)NC(=O)[C@@H]1C3 [Compound K2, N-(tert-butyl)-3-((3S,6S,12aS)-6-isobutyl-9-methoxy-1,4-dioxo-1,2,3,4,6,7,12,12a-octahydropyrazino[1′,2′:1,6]pyrido[3,4-b]indol-3-yl)propanamide] | – | – | – | – | pharmacokinetic profile [1]: better pharmacokinetic profiles than KO143
COc1ccc2c3c([nH]c2c1)[C@H](CC(C)C)N1C(=O)[C@H](CCC(=O)OC(C)(C)C)NC(=O)[C@@H]1C3 [KO143, reference compound] | – | – | – | – | stability (hydrolysis of tert-butyl ester group) (carboxylesterase 1): very unstable; pharmacokinetic profile [1]: poor oral pharmacokinetic profile
COc1ccc2c3c([nH]c2c1)[C@H](CC(C)C)N1C(=O)[C@H](CC(=O)N2CCCCC2)NC(=O)[C@@H]1C3 [Compound K25, (3S,6S,12aS)-6-isobutyl-9-methoxy-3-(2-oxo-2-(piperidin-1-yl)ethyl)-2,3,12,12a-tetrahydropyrazino[1′,2′:1,6]pyrido[3,4-b]indole-1,4(6H,7H)-dione] | 26.5 | 3.14 | – | – | –
COc1ccc2c3c([nH]c2c1)[C@H](CC(C)C)N1C(=O)[C@H](CC(=O)NC(C)C)NC(=O)[C@@H]1C3 [Compound K31, 2-((3S,6S,12aS)-6-isobutyl-9-methoxy-1,4-dioxo-1,2,3,4,6,7,12,12a-octahydropyrazino[1′,2′:1,6]pyrido[3,4-b]indol-3-yl)-N-isopropylacetamide] | > 100 | 0.27 | 65 | 49 | pharmacokinetic profile ([1]; 50 mg/kg): better pharmacokinetic profiles than KO143; also recorded: ideal pharmacokinetic profile; PPIX efflux from RBCs (RBCs of Fech-mut mice): significantly inhibited PPIX efflux from RBCs; protection from phototoxicity in EPP mouse model (Fech-mut mice; Fech-mut mice pretreated 30 min, then UV light (395-410 nm) 30 min, 5 days, FIG. 12): fully protected the EPP mice from phototoxicity; phototoxicity after withdrawal (withdrawal test) (Fech-mut mice; Fech-mut mice, 100 mg/kg po plus light day 1 to 4, light only from day 5, FIG. 13): showed phototoxicity soon after the withdrawal of K31
COc1ccc2c3c([nH]c2c1)[C@H](CC(C)C)N1C(=O)[C@H](CC(=O)NC(C)(C)C)NC(=O)[C@@H]1C3 [Compound K3, N-(tert-butyl)-2-((3S,6S,12aS)-6-isobutyl-9-methoxy-1,4-dioxo-1,2,3,4,6,7,12,12a-octahydropyrazino[1′,2′:1,6]pyrido[3,4-b]indol-3-yl)acetamide] | 58.9 | 0.18 | 74 | 60 | –
COc1ccc2c3c([nH]c2c1)[C@H](CC(C)C)N1C(=O)[C@H](CC(=O)NC2CCCCC2)NC(=O)[C@@H]1C3 [Compound K23, N-cyclohexyl-2-((3S,6S,12aS)-6-isobutyl-9-methoxy-1,4-dioxo-1,2,3,4,6,7,12,12a-octahydropyrazino[1′,2′:1,6]pyrido[3,4-b]indol-3-yl)acetamide] | 46.6 | 0.13 | 45 | 26 | –
COc1ccc2c3c([nH]c2c1)[C@H](CC(C)C)N1C(=O)[C@H](CCCCNC(=O)C(C)(C)C)N(C(=O)C(C)(C)C)C(=O)[C@@H]1C3 [Compound K11, N-(4-((3S,6S,12aS)-6-isobutyl-9-methoxy-1,4-dioxo-2-pivaloyl-1,2,3,4,6,7,12,12a-octahydropyrazino[1′,2′:1,6]pyrido[3,4-b]indol-3-yl)butyl)pivalamide] | – | – | 7 | 7 | CC50 (MTT cytotoxicity assay): 39.6 µM
COc1ccc2c3c([nH]c2c1)[C@H](CC(C)C)N1C(=O)[C@H](CC(=O)NCc2ccccc2)NC(=O)[C@@H]1C3 [Compound K33, N-benzyl-2-((3S,6S,12aS)-6-isobutyl-9-methoxy-1,4-dioxo-1,2,3,4,6,7,12,12a-octahydropyrazino[1′,2′:1,6]pyrido[3,4-b]indol-3-yl)acetamide] | 31.1 | 0.25 | 37 | 18 | –
COC1=CC(=O)C[C@@H](C)[C@]12Oc1c(Cl)c(OC)cc(OC)c1C2=O [GSF, griseofulvin] | – | – | – | – | liver damage, PPIX accumulation, bile plugs (WT and Abcg2-null mice; Abcg2-null mice): these effects failed to occur; liver damage, PPIX accumulation, bile plugs (WT and Abcg2-null mice; WT mice): caused liver damage, PPIX accumulation, and bile plugs
COc1ccc2c3c([nH]c2c1)[C@H](CC(C)C)N1C(=O)[C@H](CCC(=O)NC(C)C)NC(=O)[C@@H]1C3 [Compound K34, 3-((3S,6S,12aS)-6-isobutyl-9-methoxy-1,4-dioxo-1,2,3,4,6,7,12,12a-octahydropyrazino[1′,2′:1,6]pyrido[3,4-b]indol-3-yl)-N-isopropylpropanamide] | – | – | – | – | pharmacokinetic profile [1]: better pharmacokinetic profiles than KO143
CCOC(=O)C1=C(C)NC(C)=C(C(=O)OCC)C1C [DDC, 3,5-diethoxycarbonyl-1,4-dihydrocollidine] | – | – | – | – | liver damage, PPIX accumulation, bile plugs (WT and Abcg2-null mice; Abcg2-null mice): these effects failed to occur; liver damage, PPIX accumulation, bile plugs (WT and Abcg2-null mice; WT mice): caused liver damage, PPIX accumulation, and bile plugs
